According to US20100152230A1, “HYDROXY SUBSTITUTED 1H-IMIDAZOPYRIDINES AND METHODS” (Pfizer Inc., priority 2005, published 2010):
Where a name gives a salt, the structure may show the parent alone.

Compound | melting point
CCCCCc1cc2c(nc(O)n2[C@@H](C)c2ccccc2)c(N)n1 [Example 21, 4-Amino-6-pentyl-1-[(1S)-1-phenylethyl]-1H-imidazo[4,5-c]pyridin-2-ol] | 146.7 to 147.7 °C
CCCCCc1cc2c(nc(O)n2CC2CCN(C(C)=O)CC2)c(N)n1 [Example 13, 1-[(1-Acetylpiperidin-4-yl)methyl]-4-amino-6-pentyl-1H-imidazo[4,5-c]pyridin-2-ol] | 228 to 231 °C
CCCCCc1cc2c(nc(O)n2CCc2ccccc2)c(N)n1 [Example 2, 4-Amino-6-pentyl-1-(2-phenylethyl)-1H-imidazo[4,5-c]pyridin-2-ol] | 238 to 240 °C
CCCCCc1cc2c(nc(O)n2CC2CCOCC2)c(N)n1 [Example 4, 4-Amino-6-pentyl-1-(tetrahydro-2H-pyran-4-ylmethyl)-1H-imidazo[4,5-c]pyridin-2-ol] | > 250 °C
CCCCCc1cc2c(nc(O)n2CCS(C)(=O)=O)c(N)n1 [Example 17, 4-Amino-1-[2-(methylsulfonyl)ethyl]-6-pentyl-1H-imidazo[4,5-c]pyridin-2-ol] | 223 to 225 °C
CCCCCc1cc2c(nc(O)n2CC2CCN(C(=O)C3CC3)CC2)c(N)n1 [Example 15, 4-Amino-1-{[1-(cyclopropylcarbonyl)piperidin-4-yl]methyl}-6-pentyl-1H-imidazo[4,5-c]pyridin-2-ol] | 205 to 207 °C
CCCCCc1cc2c(nc(O)n2CC2CCN(S(C)(=O)=O)CC2)c(N)n1 [Example 12, 4-Amino-1-{[1-(methylsulfonyl)piperidin-4-yl]methyl}-6-pentyl-1H-imidazo[4,5-c]pyridin-2-ol] | 228 to 231 °C
CCCCCc1cc2c(nc(O)n2CCOCCCc2nccs2)c(N)n1 [Example 7] | 177 to 178 °C
CCCCCc1cc2c(nc(O)n2CC(C)(C)O)c(N)n1 [Example 3, 4-Amino-1-(2-hydroxy-2-methylpropyl)-6-pentyl-1H-imidazo[4,5-c]pyridin-2-ol] | 240 to 243 °C
CCCCCc1cc2c(nc(O)n2CCCCS(C)(=O)=O)c(N)n1 [Example 16, 4-Amino-1-[4-(methylsulfonyl)butyl]-6-pentyl-1H-imidazo[4,5-c]pyridin-2-ol] | 188 to 189 °C
CCCCCc1cc2c(nc(O)n2CC2CCNCC2)c(N)n1 [Example 11, 4-Amino-6-pentyl-1-(piperidin-4-ylmethyl)-1H-imidazo[4,5-c]pyridin-2-ol] | 246 to 249 °C
CCCCCc1cc2c(nc(O)n2Cc2ccccc2)c(N)n1 (as salt: salt) [Example 1, 4-Amino-1-benzyl-6-pentyl-1H-imidazo[4,5-c]pyridin-2-ol] | 260 to 262 °C
CCCCCc1cc2c(nc(O)n2CCCNS(C)(=O)=O)c(N)n1 [Example 8, N-[3-(4-Amino-2-hydroxy-6-pentyl-1H-imidazo[4,5-c]pyridin-1-yl)propyl]methanesulfonamide] | 174 to 176 °C
CCOCCc1cc2c(nc(O)n2CCCCS(C)(=O)=O)c(N)n1 [Example 18, 4-Amino-6-(2-ethoxyethyl)-1-[4-(methylsulfonyl)butyl]-1H-imidazo[4,5-c]pyridin-2-ol] | 203 to 206 °C
CCCCCc1cc2c(nc(O)n2CCCNC(C)=O)c(N)n1 [Example 10, N-[3-(4-Amino-2-hydroxy-6-pentyl-1H-imidazo[4,5-c]pyridin-1-yl)propyl]acetamide] | 189 to 191 °C
CCCCCc1cc2c(nc(O)n2[C@H](C)c2ccccc2)c(N)n1 [Example 22, 4-Amino-6-pentyl-1-[(1R)-1-phenylethyl]-1H-imidazo[4,5-c]pyridin-2-ol] | 147.1 to 148 °C
Cc1cc(Cn2c(O)nc3c(N)nc(C)c(C)c32)on1 [Example 20, 4-Amino-6,7-dimethyl-1-[(3-methylisoxazol-5-yl)methyl]-1H-imidazo[4,5-c]pyridin-2-ol] | > 300 °C
CCCCOc1cc2c(nc(O)n2Cc2ccccc2)c(N)n1 [Example 23, 4-amino-1-benzyl-6-butoxy-1H-imidazo[4,5-c]pyridin-2-ol] | 205 to 208 °C
CCCCCc1cc2c(nc(O)n2Cc2cccnc2)c(N)n1 [Example 5, 4-Amino-6-pentyl-1-(pyridin-3-ylmethyl)-1H-imidazo[4,5-c]pyridin-2-ol] | 243 to 245 °C
CCCCCc1cc2c(nc(O)n2CC2CCN(S(=O)(=O)CC)CC2)c(N)n1 [Example 14, 4-Amino-1-{[1-(ethylsulfonyl)piperidin-4-yl]methyl}-6-pentyl-1H-imidazo[4,5-c]pyridin-2-ol] | 222 to 225 °C
Cc1nc(N)c2nc(O)n(Cc3cc(-c4ccc(F)cc4)no3)c2c1C [Example 19, 4-Amino-1-{[3-(4-fluorophenyl)isoxazol-5-yl]methyl}-6,7-dimethyl-1H-imidazo[4,5-c]pyridin-2-ol] | 250 °C
